{"source": "paper PMC5699943", "about": "(Biotechnology and bioengineering, 2017)", "test_in_all_cases": "formaldehyde-responsive FrmR GFP reporter in E. coli cells", "type_in_all_cases": "cell-based", "conditions_in_all_cases": "whole cells, 0-500 mM methanol, 2 h, 37°C, NAD-dependent", "key": {"[1]": {"molecular_target": "T1, mdh from Geobacillus stearothermophilus (Geobacillus stearothermophilus, UniProt P42327)", "T1 sequence (P42327 1-339)": "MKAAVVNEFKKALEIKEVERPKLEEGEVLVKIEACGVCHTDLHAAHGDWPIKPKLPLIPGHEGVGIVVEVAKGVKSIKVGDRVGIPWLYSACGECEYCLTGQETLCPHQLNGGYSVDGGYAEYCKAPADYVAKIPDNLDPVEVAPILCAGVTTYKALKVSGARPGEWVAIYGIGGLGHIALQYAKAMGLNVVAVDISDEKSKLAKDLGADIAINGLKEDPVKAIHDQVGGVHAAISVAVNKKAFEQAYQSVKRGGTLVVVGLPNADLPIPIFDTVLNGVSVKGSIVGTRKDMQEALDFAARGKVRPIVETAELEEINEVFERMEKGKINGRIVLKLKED"}, "AdhA from C. glutamicum": {"molecular_target": "T2, AdhA from C. glutamicum (Corynebacterium glutamicum, UniProt Q8NLX9)", "T2 sequence (Q8NLX9 1-345)": "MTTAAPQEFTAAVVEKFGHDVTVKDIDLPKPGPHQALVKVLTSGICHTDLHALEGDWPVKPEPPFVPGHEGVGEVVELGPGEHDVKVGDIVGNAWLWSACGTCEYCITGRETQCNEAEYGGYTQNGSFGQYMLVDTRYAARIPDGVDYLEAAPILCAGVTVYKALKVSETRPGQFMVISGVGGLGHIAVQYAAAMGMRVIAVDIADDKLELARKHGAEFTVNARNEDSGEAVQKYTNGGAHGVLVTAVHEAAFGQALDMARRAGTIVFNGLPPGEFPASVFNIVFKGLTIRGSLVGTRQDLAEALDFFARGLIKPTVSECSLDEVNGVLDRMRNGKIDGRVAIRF"}, "[2]": {"molecular_target": "T3, mdh2 from Cupriavidus necator (Cupriavidus necator, UniProt F8GNE5)", "T3 sequence (F8GNE5 1-390)": "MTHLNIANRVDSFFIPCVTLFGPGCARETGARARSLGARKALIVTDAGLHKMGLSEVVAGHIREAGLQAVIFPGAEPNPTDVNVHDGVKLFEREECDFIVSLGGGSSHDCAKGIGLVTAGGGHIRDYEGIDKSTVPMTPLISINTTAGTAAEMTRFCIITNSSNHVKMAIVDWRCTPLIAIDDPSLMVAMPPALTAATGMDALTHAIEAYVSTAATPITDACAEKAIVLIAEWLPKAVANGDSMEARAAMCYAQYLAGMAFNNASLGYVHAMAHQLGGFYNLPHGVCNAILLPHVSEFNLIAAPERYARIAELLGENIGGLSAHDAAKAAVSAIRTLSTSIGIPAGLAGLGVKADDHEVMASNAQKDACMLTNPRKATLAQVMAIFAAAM"}}}
{"compound": "CO", "note": "[methanol]", "values": [{"measurement": "formaldehyde-responsive FrmR GFP reporter in E. coli cells", "setting": "[1]", "value": "After two hours, signal was detected for all variants except Mdh1"}, {"measurement": "formaldehyde-responsive FrmR GFP reporter in E. coli cells", "setting": "AdhA from C. glutamicum", "value": "After two hours, signal was detected for all variants except Mdh1"}, {"measurement": "formaldehyde-responsive FrmR GFP reporter in E. coli cells", "setting": "[2]", "value": "After two hours, signal was detected for all variants except Mdh1"}]}
